Data published in article PMC7696755 (2020).

Key:
[1] = test system: AT-DNA (DNA, duplex) TATATATATATATATATATATATATATATATATATATATA; assay: UV/Vis absorption titration (hypochromism); conditions: 137 mM NaCl, 2.7 mM KCl, PBS (10 mM phosphate), pH 7.4, room temperature, per base pair, intercalation, data not shown
[2] = test system: AT-DNA (DNA, duplex) TATATATATATATATATATATATATATATATATATATATA; assay: UV/Vis absorption titration (302 nm, hypochromism); conditions: 137 mM NaCl, 2.7 mM KCl, PBS (10 mM phosphate), pH 7.4, room temperature, per base pair, 15 µM 8-MOP, intercalation, before irradiation

## COc1c2ccoc2cc2oc(=O)ccc12
[1]
  KD: 180 µM

## COc1c2occc2cc2ccc(=O)oc12
[2]
  KD: 1100 µM
